Results on 24 molecules are retold here after patent publication US11566007B2, “Ras inhibitors” (Revolution Medicines, Inc., priority 2019, dated 2023).

One test concerns NCI-H358 (K-Ras G12C). Nature of the test: CellTiter-Glo cell viability assay, NCI-H358. It counts as cell-based, human. The note with it: NCI-H358, 5-day treatment, class symbols, read-out: Additional H358 Cell Viability assay data (K-Ras G12C, IC50). Put shortly: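 Compounds were dispensed directly onto K-Ras mutant cells and incubated until day 5, then plates were equilibrated to room temperature for about 30 minutes before CellTiter-Glo luminescence. Signals were normalized as (sample/average DMSO)*100 and fitted by four-parameter logistic fit.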

Another test deals with KRAS G12S (Homo sapiens (Human), UniProt P01116+P62937, G12S). Nature of the test: Ras-Raf (BRAF RBD) disruption / FRET / MOA assay, KRAS G12S. The format is biochemical. The note with it: Ras-Raf disruption/FRET/MOA assay; class symbols; read-out: KRAS G12S FRET data IC50. Put shortly:
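TR-FRET read-out: a drop in ratio relative to DMSO wells marks disruption of the Ras:RAF complex, reported as IC50. Compounds (3-fold series, 10 points, top 30 μM final) incubated 3 h at 25° C before Eu-anti-His 10 nM and APC-anti-GST 50 nM, 1.5 h more.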

Values joined by “and” are separate entries in the source; they are usually repeats but may differ in a detail not shown here. Identical values can stand only once. Like-named read-outs stand apart in the source and are kept apart here. Where only a bound is given, the exact number is not on record here.

Chain of KRAS G12S (P01116-2 other isoform, or with tags, fused parts or gaps G12S): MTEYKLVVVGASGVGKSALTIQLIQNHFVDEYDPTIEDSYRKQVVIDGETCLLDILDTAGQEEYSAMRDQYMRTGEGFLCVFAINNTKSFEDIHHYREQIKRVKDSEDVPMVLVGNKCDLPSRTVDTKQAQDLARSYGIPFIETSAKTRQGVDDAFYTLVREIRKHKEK
Chain of KRAS G12S (P62937 whole entry): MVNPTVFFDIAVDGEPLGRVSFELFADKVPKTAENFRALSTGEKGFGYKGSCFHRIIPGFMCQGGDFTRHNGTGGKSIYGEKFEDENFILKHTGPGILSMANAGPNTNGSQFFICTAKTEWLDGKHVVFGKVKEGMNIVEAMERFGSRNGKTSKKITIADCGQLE

Take `C=CC(=O)N1CC2(C1)OCCCN2C(=O)N(C)[C@H](C(=O)N[C@H]1Cc2nc(cs2)-c2ccc3c(c2)c(c(-c2cccnc2[C@H](C)OC)n3CC)CC(C)(C)COC(=O)[C@@H]2CCCN(N2)C1=O)C(C)C` (atropisomer, axis not shown) [Example A735, 2-acryloyl-N-((2S)-1-(((6^3S,4S,Z)-1^1-ethyl-1^2-(2-((S)-1-methoxyethyl)pyridin-3-yl)-10,10-dimethyl-5,7-dioxo-6^1,6^2,6^3,6^4,6^5,6^6-hexahydro-1^1H-8-oxa-2(4,2)-thiazola-1(5,3)-indola-6(1,3)-pyridazinacycloundecaphane-4-yl)amino)-3-methyl-1-oxobutan-2-yl)-N-methyl-5-oxa-2,9-diazaspiro[3.5]nonane-9-carboxamide]: the IC50 in the test on NCI-H358 (K-Ras G12C) (Homo sapiens, NCI-H358, 120 h) is < 10 nM; on KRAS G12S, > 10000 nM.
The matching figures for `CCn1c(-c2cccnc2[C@H](C)OC)c2c3cc(ccc31)-c1csc(n1)C[C@H](NC(=O)CCOC1CN(C(=O)C#CC(C)(C)N(C)C)C1)C(=O)N1CCC[C@H](N1)C(=O)OCC(C)(C)C2` (atropisomer, axis not shown) [Example A427, 3-((1-(4-(dimethylamino)-4-methylpent-2-ynoyl)azetidin-3-yl)oxy)-N-((6^3S,4S,Z)-1^1-ethyl-1^2-(2-((S)-1-methoxyethyl)pyridin-3-yl)-10,10-dimethyl-5,7-dioxo-6^1,6^2,6^3,6^4,6^5,6^6-hexahydro-1^1H-8-oxa-2(4,2)-thiazola-1(5,3)-indola-6(1,3)-pyridazinacycloundecaphane-4-yl)propanamide]: < 10 nM and 1000 to 10000 nM.
The matching figures for `C=CC(=O)N1CC(OC[C@H](C(=O)N[C@H]2Cc3cccc(c3)-c3ccc4c(c3)c(c(-c3cccnc3[C@H](C)OC)n4CC(F)(F)F)CC(C)(C)COC(=O)[C@@H]3CCCN(N3)C2=O)C(C)C)C1` (atropisomer, axis not shown) [Example A344]: < 10 nM and 1000 to 10000 nM.
As to `C=CC(=O)Nc1cnc(OC[C@H](C(=O)N[C@H]2Cc3cccc(c3)-c3ccc4c(c3)c(c(-c3cccnc3[C@H](C)OC)n4CC)CC(C)(C)COC(=O)[C@@H]3CCCN(N3)C2=O)C(C)C)n1C` (atropisomer, axis not shown) [Example A600], the IC50 in the test with NCI-H358 (K-Ras G12C) (Homo sapiens, NCI-H358, 120 h) was < 10 nM; at KRAS G12S, 1000 to 10000 nM.
The matching figures for `C=CC(=O)N1CC[C@H](C(=O)N(C)[C@H](C(=O)N[C@H]2Cc3nc(cs3)-c3ccc4c(c3)c(c(-c3cc5c(nc3[C@H](C)OC)CCN(C)C5)n4CC)CC(C)(C)COC(=O)[C@@H]3CCCN(N3)C2=O)C(C)C)C1` (atropisomer, axis not shown) [Example A472]: < 10 nM and 1000 to 10000 nM.
In the case of `C=CC(=O)N1CC[C@H](C(=O)N(C)[C@H](C(=O)N[C@H]2Cc3cccc(c3)-c3ccc4c(c3)c(c(-c3cccnc3[C@H](C)OC)n4CC)CC(C)(C)COC(=O)[C@@H]3CCCN(N3)C2=O)C(C)(C)F)C1` (atropisomer, axis not shown) [Example A693], the IC50 lay within 100 to 1000 nM in the test on NCI-H358 (K-Ras G12C) (Homo sapiens, NCI-H358, 120 h) and 1000 to 10000 nM on KRAS G12S.
The corresponding values for `C=C(C)C(=O)N1CC(N(C)C(=O)N(C)[C@H](C(=O)N[C@H]2Cc3nc(cs3)-c3ccc4c(c3)c(c(-c3cccnc3[C@H](C)OC)n4CC)CC(C)(C)COC(=O)[C@@H]3CCCN(N3)C2=O)C(C)C)C1` (atropisomer, axis not shown) [Example A360] are 10 to 100 nM and 100 to 1000 nM.
The corresponding values for `CO[C@@H](C)c1ncccc1-c1c2c3cc(ccc3n1CC(F)(F)F)N1CCO[C@@H](C[C@H](NC(=O)[C@H](C(C)C)N3CC[C@@]4(CCN(C(=O)C#CC(C)(C)N(C)C)C4)C3=O)C(=O)N3CCC[C@H](N3)C(=O)OCC(C)(C)C2)C1` (atropisomer, axis not shown) [Example A628] are 10 to 100 nM and 1000 to 10000 nM.
The corresponding values for `C=CC(=O)N1CC[C@H](C(=O)N(C)[C@H](C(=O)N[C@H]2Cc3cccc(c3)-c3ccc4c(c3)c(c(-c3cccnc3[C@H](C)OC)n4CC(F)F)CC(C)(C)COC(=O)[C@@H]3CCCN(N3)C2=O)C(C)C)C1` (atropisomer, axis not shown) [Example A335] are 10 to 100 nM and 1000 to 10000 nM.
On to `C=CC(=O)N1CC[C@]2(CCN(C(=O)N(C)[C@H](C(=O)N[C@H]3Cc4nc(cs4)-c4ccc5c(c4)c(c(-c4cccnc4[C@H](C)OC)n5CC)CC(C)(C)COC(=O)[C@@H]4CCCN(N4)C3=O)C(C)C)C2)C1` (atropisomer, axis not shown) [Example A719], for which the IC50 is 10 to 100 nM in the test with NCI-H358 (K-Ras G12C) (Homo sapiens, NCI-H358, 120 h) and 100 to 1000 nM at KRAS G12S.
The corresponding values for `C=CC(=O)N1CC[C@H](C(=O)N(C)[C@@H](CC(F)(F)F)C(=O)N[C@H]2Cc3cccc(c3)-c3ccc4c(c3)c(c(-c3cccnc3[C@H](C)OC)n4CC)CC(C)(C)COC(=O)[C@@H]3CCCN(N3)C2=O)C1` (atropisomer, axis not shown) [Example A639] are 100 to 1000 nM and 1000 to 10000 nM.
As to `C=CC(=O)N1CCN(C(=O)N(C)[C@H](C(=O)N[C@H]2Cc3nc(cs3)-c3ccc4c(c3)c(c(-c3cccnc3[C@H](C)OC)n4CC)CC(C)(C)COC(=O)[C@@H]3CCCN(N3)C2=O)C(C)C)[C@H]2CC[C@H]21` (atropisomer, axis not shown) [Example A734], the 50% inhibitory concentration (IC50) in the test on NCI-H358 (K-Ras G12C) (Homo sapiens, NCI-H358, 120 h) was 10 to 100 nM; at KRAS G12S it was 10 to 100 nM.
As for `CCn1c(-c2cccnc2[C@H](C)OC)c2c3cc(ccc31)-c1csc(n1)C[C@H](NC(=O)CCO[C@@H]1CCN(C(=O)C#CC(C)(C)N3CCC3)C1)C(=O)N1CCC[C@H](N1)C(=O)OCC(C)(C)C2` (atropisomer, axis not shown) [Example A366], the IC50 in the test on NCI-H358 (K-Ras G12C) (Homo sapiens, NCI-H358, 120 h) lay within 100 to 1000 nM; at KRAS G12S, 1000 to 10000 nM.
For the molecule `CCn1c(-c2cccnc2[C@H](C)OC)c2c3cc(ccc31)-c1csc(n1)C[C@H](NC(=O)[C@@H](F)COC1CN(C(=O)C#CC(C)(C)N(C)C)C1)C(=O)N1CCC[C@H](N1)C(=O)OCC(C)(C)C2` (atropisomer, axis not shown) [Example A626], the IC50 in the test with NCI-H358 (K-Ras G12C) (Homo sapiens, NCI-H358, 120 h) is 10 to 100 nM; at KRAS G12S, 1000 to 10000 nM.
As for `CCn1c(-c2cccnc2[C@H](C)OC)c2c3cc(ccc31)-c1cccc(c1)C[C@H](NC(=O)[C@H](C(C)C)N1CC[C@@]3(CCN(C(=O)C#C[C@@H]4COCCN4C4COC4)C3)C1=O)C(=O)N1CCC[C@H](N1)C(=O)OCC(C)(C)C2` [Example A566], the IC50 was < 10 nM in the test with NCI-H358 (K-Ras G12C) (Homo sapiens, NCI-H358, 120 h) and 1000 to 10000 nM on KRAS G12S.
As to `C=CC(=O)N1C[C@@H](C)[C@H](N(C)C(=O)N(C)[C@H](C(=O)N[C@H]2Cc3nc(cs3)-c3ccc4c(c3)c(c(-c3cccnc3[C@H](C)OC)n4CC)CC(C)(C)COC(=O)[C@@H]3CCCN(N3)C2=O)C(C)C)C1` (atropisomer, axis not shown) [Example A588], the IC50 in the test with NCI-H358 (K-Ras G12C) (Homo sapiens, NCI-H358, 120 h) was 10 to 100 nM; on KRAS G12S, 1000 to 10000 nM.
Regarding `C=CC(=O)N1CC(OC[C@H](C(=O)N[C@H]2Cc3cc(F)cc(c3)-c3ccc4c(c3)c(c(-c3cccnc3[C@H](C)OC)n4CC(F)(F)F)CC(C)(C)COC(=O)[C@@H]3CCCN(N3)C2=O)C(C)C)C1` (atropisomer, axis not shown) [Example A725], the IC50 is 10 to 100 nM in the test with NCI-H358 (K-Ras G12C) (Homo sapiens, NCI-H358, 120 h) and 1000 to 10000 nM on KRAS G12S.
The corresponding values for `C=CC(=O)N1C[C@@H](C)N(C(=O)N(C)[C@H](C(=O)N[C@H]2Cc3nc(cs3)-c3ccc4c(c3)c(c(-c3cccnc3[C@H](C)OC)n4CC)CC(C)(C)COC(=O)[C@@H]3CCCN(N3)C2=O)C(C)C)[C@@H](C)C1` (atropisomer, axis not shown) [Example A387] are 10 to 100 nM and 100 to 1000 nM.
The corresponding values for `C=CC(=O)N1CCOC2(CCN(C(=O)N(C)[C@H](C(=O)N[C@H]3Cc4cc(CF)cc(c4)-c4ccc5c(c4)c(c(-c4cccnc4[C@H](C)OC)n5CC(F)(F)F)CC(C)(C)COC(=O)[C@@H]4CCCN(N4)C3=O)C(C)C)CC2)C1` (atropisomer, axis not shown) [Example A605] are 10 to 100 nM and 100 to 1000 nM.
The corresponding values for `CCn1c(-c2cccnc2[C@H](C)OC)c2c3cc(ccc31)-c1csc(n1)C[C@H](NC(=O)[C@H](C(C)C)N(C)C(=O)N1CCN(C(=O)/C=C/CN(C)C)C3(CC3)C1)C(=O)N1CCC[C@H](N1)C(=O)OCC(C)(C)C2` (atropisomer, axis not shown) [Example A701] are 10 to 100 nM and 100 to 1000 nM.
As to `CCn1c(-c2cccnc2[C@H](C)OC)c2c3cc(ccc31)-c1csc(n1)C[C@H](NC(=O)[C@H](C(C)C)N(C)C(=O)N1CCC3(CC1)CN(C(=O)/C=C/CN(C)C)C3)C(=O)N1CCC[C@H](N1)C(=O)OCC(C)(C)C2` (atropisomer, axis not shown) [Example A650], the IC50 was in the range of 10 to 100 nM in the test with NCI-H358 (K-Ras G12C) (Homo sapiens, NCI-H358, 120 h) and 100 to 1000 nM on KRAS G12S.
Consider `C=CC(=O)N1CCC2(CC1)CN(C(=O)N(C)[C@H](C(=O)N[C@H]1Cc3nc(cs3)-c3ccc4c(c3)c(c(-c3cccnc3[C@H](C)OC)n4CC)CC(C)(C)COC(=O)[C@@H]3CCCN(N3)C1=O)C(C)C)C2` (atropisomer, axis not shown) [Example A702], for which the IC50 is 10 to 100 nM with NCI-H358 (K-Ras G12C) (Homo sapiens, NCI-H358, 120 h) and 100 to 1000 nM on KRAS G12S.
The corresponding values for `C=CC(=O)N1CC(N2CCN(C(=O)N(C)[C@H](C(=O)N[C@H]3Cc4nc(cs4)-c4ccc5c(c4)c(c(-c4cccnc4[C@H](C)OC)n5CC)CC(C)(C)COC(=O)[C@@H]4CCCN(N4)C3=O)C(C)C)CC2)C1` (atropisomer, axis not shown) [Example A668] are 10 to 100 nM and 100 to 1000 nM.
Turning to `C=CC(=O)N1CC[C@H](C(=O)N(C)[C@H](C(=O)N[C@H]2Cc3cc(O)cc(c3)-c3ccc4c(c3)c(c(-c3cc(C)ccc3[C@H](C)OC)n4CC)CC(C)(C)COC(=O)[C@@H]3CCCN(N3)C2=O)C(C)C)C1` (atropisomer, axis not shown) [Example A167], the IC50 was 10 to 100 nM in the test on NCI-H358 (K-Ras G12C) (Homo sapiens, NCI-H358, 120 h); < 10 nM in the test with NCI-H358 (K-Ras G12C); 1000 to 10000 nM and 10 to 100 nM on KRAS G12S.

A word on the IC50: it is the concentration needed to halve the response being measured.
